Where two headings read alike, the source gives them in different places.
Assays:
[1] = target: T1, USP2^CD (purified catalytic domain of USP2) (Homo sapiens, UniProt O75604); assay: Inhibition of purified USP2^CD enzymatic activity (Ub-AMC or Ub-Rho substrate); assay type: biochemical; conditions: for inhibition at 0.01 µM: 0.01 μM compound; for inhibition at 0.05 µM: 0.05 μM compound; for inhibition at 0.1 µM: 0.1 μM compound; for inhibition at 0.5 µM: 0.5 μM compound; for inhibition at 1 µM: 1 μM compound; for inhibition at 5 µM: 5 μM compound; for inhibition at 10 µM: 10 μM compound; for inhibition at 25 µM: 25 μM compound; for inhibition at 50 µM: 50 μM compound; for IC50: read-out: IC50 USP2 CD
T1 construct: The purified catalytic domain of USP2 (USP2^CD, in-house purified); His; made in house; host or cells: E. coli BL21 Gold
T1 sequence (O75604 267-599 limits assumed): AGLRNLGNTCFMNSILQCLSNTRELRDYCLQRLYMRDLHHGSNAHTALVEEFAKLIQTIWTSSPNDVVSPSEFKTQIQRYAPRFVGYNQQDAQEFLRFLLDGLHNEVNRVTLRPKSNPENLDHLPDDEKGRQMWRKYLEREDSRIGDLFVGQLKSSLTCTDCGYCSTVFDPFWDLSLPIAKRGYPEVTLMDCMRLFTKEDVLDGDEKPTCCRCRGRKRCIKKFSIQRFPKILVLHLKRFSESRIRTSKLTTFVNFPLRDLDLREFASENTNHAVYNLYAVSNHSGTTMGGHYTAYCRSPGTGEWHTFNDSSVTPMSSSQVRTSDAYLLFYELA
Summary of the method: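 His-tagged catalytic domain expressed in E. coli and Ni/gel-filtration purified; assayed in 50 mM HEPES pH 7.6 or 40 mM Tris pH 7.4 with 1 mM DTT. Compound added just before Ub-AMC or Ub-Rho substrate; fluorescence from hydrolysis followed over 20 or 30 min, median of duplicates.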

[2] = target: T2, USP8^CD (purified catalytic domain of USP8) (Homo sapiens, UniProt P40818); assay: Inhibition of purified USP8^CD enzymatic activity (Ub-AMC or Ub-Rho substrate); assay type: biochemical; conditions: for inhibition at 0.01 µM: 0.01 μM compound; for inhibition at 0.05 µM: 0.05 μM compound; for inhibition at 0.1 µM: 0.1 μM compound; for inhibition at 0.5 µM: 0.5 μM compound; for inhibition at 1 µM: 1 μM compound; for inhibition at 5 µM: 5 μM compound; for inhibition at 10 µM: 10 μM compound; for inhibition at 25 µM: 25 μM compound; for inhibition at 50 µM: 50 μM compound; for IC50: read-out: IC50 USP8 CD
T2 construct: the purified catalytic domain of USP8 (USP8^CD, in-house purified); made in house; host or cells: E. coli BL21 Gold
T2 sequence (P40818 777-1109 limits assumed): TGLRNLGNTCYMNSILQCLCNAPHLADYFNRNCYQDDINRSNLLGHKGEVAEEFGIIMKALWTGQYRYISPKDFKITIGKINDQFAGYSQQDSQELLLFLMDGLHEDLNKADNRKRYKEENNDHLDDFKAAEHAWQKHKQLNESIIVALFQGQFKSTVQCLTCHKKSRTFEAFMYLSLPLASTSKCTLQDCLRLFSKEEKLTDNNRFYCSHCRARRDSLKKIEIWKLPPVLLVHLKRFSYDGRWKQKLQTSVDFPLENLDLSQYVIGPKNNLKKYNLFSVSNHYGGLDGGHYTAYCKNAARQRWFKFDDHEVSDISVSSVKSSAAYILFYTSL
Summary of the method: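 His-tagged catalytic domain expressed in E. coli and purified by Ni affinity and gel filtration. Assayed in 50 mM HEPES pH 7.6 or 40 mM Tris pH 7.4 buffer with 1 mM DTT; compound added just before Ub-AMC or Ub-Rho substrate, fluorescence kinetics followed 20 or 30 min. Median of duplicates.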

MESSA cells = assay: Cytotoxicity assay (PrestoBlue cell viability), MESSA; assay type: cell-based; conditions: Homo sapiens, MES-SA; 48 hours treatment; concentration inducing 50% cell mortality
Protocol: (§1) Messa, Messa DX5, HCT116, HEK-293, PC-3, LNCaP, HCC827 and H1975 cell lines are issued from the American Type Culture Collection (ATCC).
(§2) Messa, Messa DX5 and HCT116 were maintained in McCoy's supplemented with 10% fetal bovine serum, and 1% penicillin/streptomycin. PC-3, LNCaP cells were maintained in RPMI medium supplemented with 10% fetal bovine serum, and 1% penicilin/streptomycin and in the case of Messa DX5: 500 nM Doxorubicin was added to maintain selection pressure. HEK293 were maintained in DMEM medium supplemented with 10% fetal bovine serum, and 1% penicillin/streptomycin. Cells were maintained at 37° C. with 5% CO2, 95% air, and humid atmosphere. In the case of hormonal dependent LNCaP cells, 2 μM DiHydroTestosterone (DHT) was added or not—depending on the type of biological assay—for the same incubation period as compounds.
(§3) For cytotoxicity assays, cells were seeded in 96-well microplates 24 hours before the addition of increasing concentrations of each compound in the culture medium. Cell viability was analyzed 48 hours following addition of each compound through the monitoring of mitochondrial […] activity using PrestoBlue® Cell Viability Reagent (Invitrogen; #A-13261). Paclitaxel was used as a control which is cytotoxic on various cancerous cells although not on chemoresistant MESSA DX5 lineage.

MESSA DX5 cells = assay: Cytotoxicity assay (PrestoBlue cell viability), MESSA DX5; assay type: cell-based, human; conditions: Homo sapiens, MES-SA/Dx5; 48 hours treatment; chemoresistant line
Protocol: as §1, §2, §3

HEK293 cells = assay: Cytotoxicity assay (PrestoBlue cell viability), HEK293; assay type: cell-based; conditions: Homo sapiens, 48 hours treatment
Protocol: as §1, §2, §3

PC-3 cells = assay: Cytotoxicity assay (PrestoBlue cell viability), PC-3; assay type: cell-based; conditions: Homo sapiens, 48 hours treatment
Protocol: as §1, §2, §3

LNCaP cells = assay: Cytotoxicity assay (PrestoBlue cell viability), LNCaP; assay type: cell-based; conditions: Homo sapiens, 48 hours treatment
Protocol: as §1, §2, §3

H1975 cells = assay: Cytotoxicity assay (PrestoBlue cell viability), H1975; assay type: cell-based, human; conditions: Homo sapiens, NCI-H1975, 48 h
Protocol: as §1, §3

[3] = Ub-AMC substrate at 1 μM, Table 2b
[4] = Ub-Rhodamine substrate at 0.1 μM, Table 2c

## COc1ccc(S(=O)(=O)Cc2nc3c(nc2CS(=O)(=O)c2ccc(OC)c(OC)c2)C(=O)c2ccccc2C3=O)cc1OC [OVM18]
[1]; Table 1c
  inhibition at 0.01 µM: -19%
  inhibition at 0.05 µM: -3%
  inhibition at 0.1 µM: 19%
  inhibition at 0.5 µM: -20%
  inhibition at 1 µM: 44%
  inhibition at 5 µM: 17%
  inhibition at 10 µM: 9%
[1]; Table 1b
  inhibition at 1 µM: 53%
  inhibition at 25 µM: 53%
  inhibition at 50 µM: 63%
[1]; [3]
  IC50: > 10 µM
[2]; Table 1d
  inhibition at 0.01 µM: 2%
  inhibition at 0.05 µM: 21%
  inhibition at 0.1 µM: -8%
  inhibition at 0.5 µM: 63%
  inhibition at 1 µM: 83%
  inhibition at 5 µM: 77%
  inhibition at 10 µM: 71%
[2]; Table 1b
  inhibition at 1 µM: 100%
  inhibition at 5 µM: 103%
  inhibition at 25 µM: 96%
  inhibition at 50 µM: 101%
[2]; [3]
  IC50: 0.5 µM
MESSA cells
  EC50: 1.3 µM
MESSA DX5 cells
  EC50: 2.5 µM
HEK293 cells
  EC50: 2.5 µM
PC-3 cells
  EC50: 3 µM
LNCaP cells
  EC50: 2.1 µM
H1975 cells
  EC50: > 3 µM

## CCS(=O)(=O)Cc1nc2c(nc1CS(=O)(=O)CC)C(=O)c1ccccc1C2=O [VIN6075]
[1]; Table 1c
  inhibition at 0.01 µM: 11%
  inhibition at 0.05 µM: 6%
  inhibition at 0.1 µM: -26%
  inhibition at 0.5 µM: 2%
  inhibition at 1 µM: 31%
  inhibition at 5 µM: 51%
  inhibition at 10 µM: 57%
[1]; Table 1b
  inhibition at 1 µM: 51%
  inhibition at 5 µM: 75%
  inhibition at 25 µM: 99%
  inhibition at 50 µM: 100%
[1]; [3]
  IC50: 5 µM
[1]; [4]
  IC50: 0.6 µM
[2]; Table 1d
  inhibition at 0.01 µM: -15%
  inhibition at 0.05 µM: 24%
  inhibition at 0.1 µM: 12%
  inhibition at 0.5 µM: 51%
  inhibition at 1 µM: 86%
  inhibition at 5 µM: 104%
  inhibition at 10 µM: 110%
[2]; Table 1b
  inhibition at 1 µM: 85%
  inhibition at 5 µM: 102%
  inhibition at 25 µM: 104%
  inhibition at 50 µM: 106%
[2]; [3]
  IC50: 0.5 µM
[2]; [4]
  IC50: 0.08 µM
MESSA cells
  EC50: 3 µM
MESSA DX5 cells
  EC50: > 3 µM
HEK293 cells
  EC50: > 3 µM
PC-3 cells
  EC50: 3 µM
LNCaP cells
  EC50: 2.8 µM
H1975 cells
  EC50: > 3 µM

From US11306063B2, “Heterocyclic naphthoquinones derivatives for use in the treatment of cancers including Cushing disease” (Commissariat a l'Energie Atomique et aux Energies …, priority 2016, dated 2022)
